# Where two headings read alike, the source gives them in different places.
# Assays:
# human 5-HT4 receptor = target: T1, human 5-HT4 receptor (Homo sapiens, UniProt Q13639); test: Binding affinity of compounds for 5-HT4 receptor (radioligand displacement, membrane lysates of COS-7 cells); conditions: inhibition of specific binding of 0.595 nM [H3]-AGR113808; COS-7 cell membrane lysates expressing human 5-HT4 receptor
# T1 construct: expressed in transfected cells; host or cells: COS-7
# male ICR mice = test system: male ICR mice
# Procedure: In order to examine acute toxicity of compounds according to the present invention, the following experiment was carried out.
# Over the entire experimental period of 2 weeks, the minimum lethal dose (MLD, mg/kg) of the compound was investigated by the observation of the mortality, body weight and clinical symptoms of animals.
# hERG potassium channel = target: T2, hERG potassium channel (Homo sapiens, UniProt Q12809); test: Binding affinity of compounds for hERG receptor ([H3]-Astemizole displacement, HEK-293 membrane lysates); conditions: % inhibition of specific binding of 1.5 nM [H3]-Astemizole at 10 μM test material
# T2 construct: host or cells: HEK-293
# T2 sequence (Q12809 whole entry): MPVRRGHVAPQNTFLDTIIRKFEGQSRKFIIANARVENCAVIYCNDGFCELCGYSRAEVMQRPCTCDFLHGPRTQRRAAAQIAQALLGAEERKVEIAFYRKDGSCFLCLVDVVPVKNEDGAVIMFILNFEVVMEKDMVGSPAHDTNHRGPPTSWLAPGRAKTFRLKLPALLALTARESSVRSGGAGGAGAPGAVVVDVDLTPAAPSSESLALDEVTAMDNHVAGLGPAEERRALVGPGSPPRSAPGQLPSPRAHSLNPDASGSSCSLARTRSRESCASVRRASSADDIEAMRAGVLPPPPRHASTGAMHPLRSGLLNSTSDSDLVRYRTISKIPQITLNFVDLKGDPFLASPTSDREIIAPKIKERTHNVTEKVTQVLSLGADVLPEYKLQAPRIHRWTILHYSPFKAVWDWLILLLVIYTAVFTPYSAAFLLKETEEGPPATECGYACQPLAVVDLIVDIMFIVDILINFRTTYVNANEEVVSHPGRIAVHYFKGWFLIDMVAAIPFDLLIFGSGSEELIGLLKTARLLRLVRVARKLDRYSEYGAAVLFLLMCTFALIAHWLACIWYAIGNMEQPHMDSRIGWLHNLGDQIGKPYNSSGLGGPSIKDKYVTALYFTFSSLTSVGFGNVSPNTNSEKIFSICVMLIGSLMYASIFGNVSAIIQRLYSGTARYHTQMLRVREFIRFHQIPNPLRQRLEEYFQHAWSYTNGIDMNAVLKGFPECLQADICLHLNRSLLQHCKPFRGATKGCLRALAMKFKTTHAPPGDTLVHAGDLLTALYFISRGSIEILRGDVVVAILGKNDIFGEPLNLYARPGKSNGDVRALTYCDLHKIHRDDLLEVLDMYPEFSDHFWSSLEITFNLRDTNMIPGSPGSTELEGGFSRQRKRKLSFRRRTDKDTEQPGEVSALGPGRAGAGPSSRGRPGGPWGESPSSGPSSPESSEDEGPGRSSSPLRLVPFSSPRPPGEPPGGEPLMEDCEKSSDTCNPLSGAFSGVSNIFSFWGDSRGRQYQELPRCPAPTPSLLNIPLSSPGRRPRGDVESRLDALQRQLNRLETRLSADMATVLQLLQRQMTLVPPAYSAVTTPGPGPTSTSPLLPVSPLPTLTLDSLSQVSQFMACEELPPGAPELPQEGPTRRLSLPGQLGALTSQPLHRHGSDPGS
# Procedure: Membrane lysates were obtained from mammalian HEK-293 cells expressing the hERG potassium channel and used in binding assay experiments. […] After incubation was completed, the radioactivity bound to the hERG K+ channel was counted. The affinity of each test material for the hERG K+ channel was calculated from % inhibition of specific binding of the radioligand to the hERG K+ channel, resulting from the action of the test material.
# [1] = male, ICR, mouse, in vivo, po, 2 weeks
# [2] = oral, single dose of 1 g/10 mL/kg in 1% hydroxypropylmethylcellulose, 5-week old male ICR mice, observed 2 weeks
# T1 sequence (Q13639 whole entry): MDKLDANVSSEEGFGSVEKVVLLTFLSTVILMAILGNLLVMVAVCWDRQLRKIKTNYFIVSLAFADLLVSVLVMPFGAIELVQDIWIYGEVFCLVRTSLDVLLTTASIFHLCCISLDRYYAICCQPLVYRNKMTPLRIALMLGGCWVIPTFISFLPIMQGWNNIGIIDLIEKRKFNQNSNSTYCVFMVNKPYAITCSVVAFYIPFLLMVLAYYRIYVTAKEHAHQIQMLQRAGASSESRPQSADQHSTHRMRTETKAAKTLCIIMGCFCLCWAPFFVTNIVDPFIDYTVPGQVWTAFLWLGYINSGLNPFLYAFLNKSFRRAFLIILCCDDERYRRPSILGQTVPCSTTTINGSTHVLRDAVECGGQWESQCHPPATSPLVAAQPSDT
SMILES,IC50 (human 5-HT4 receptor) [nM],"Minimum lethal dose (MLD, mg/kg) (male ICR mice; [1]) [mg/kg]",hERG binding affinity (% at 10 μM) (hERG potassium channel) [%],"Minimum lethal dose (MLD, mg/kg) (male ICR mice; [2]) [mg/kg]"
"COc1cc(N)c(Cl)cc1C(=O)N[C@H]1CCN(CCC(=O)Nc2cccc3ncccc23)C[C@H]1OC (relative stereo) [Compound 56, cis-4-amino-5-chloro-N-[1-(3-oxo-3-(quinolin-5-yl-amino)propyl)-3-methoxypiperidin-4-yl]-2-methoxybenzamide]",11,>1000,23,–
"COc1cc(N)c(Cl)cc1C(=O)N[C@H]1CCN(CC2CCN(C(=O)C(C)C)CC2)C[C@H]1OC (relative stereo) [Compound 14, cis-4-amino-5-chloro-N-[1-((1-isobutyrylpiperidin-4-yl)methyl)-3-methoxypiperidin-4-yl]-2-methoxybenzamide]",141,>1000,–,–
"CCOC(=O)N1CCC(CN2CC[C@@H](NC(=O)c3cc(Cl)c(N)cc3OC)[C@@H](OC)C2)CC1 [Compound 2, ethyl 4-[((3S,4R)-4-(4-amino-5-chloro-2-methoxybenzamido)-3-methoxypiperidin-1-yl)methyl]piperidine-1-carboxylate]",83,–,–,>1000
"COc1cc(N)c(Cl)cc1C(=O)N[C@H]1CCN(CC2CCN(C(=O)C(C)(C)C)CC2)C[C@H]1OC (relative stereo) [Compound 29, cis-4-amino-5-chloro-N-[1-((1-pivaloylpiperidin-4-yl)methyl)-3-methoxypiperidin-4-yl]-2-methoxybenzamide]",34,>1000,–,–
"CCCOC(=O)N1CCC(CN2CC[C@H](NC(=O)c3cc(Cl)c(N)cc3OC)[C@H](OC)C2)CC1 (relative stereo) [Compound 6, propyl 4-[(cis-4-(4-amino-5-chloro-2-methoxybenzamido)-3-methoxypiperidin-1-yl)methyl]piperidine-1-carboxylate]",94,–,–,>1000
"COc1cc(N)c(Cl)cc1C(=O)N[C@H]1CCN(CC2CCN(C(=O)N(C)C)CC2)C[C@H]1OC (relative stereo) [Compound 64, 4-[cis-4-(4-amino-5-chloro-2-methoxybenzoylamino)-3-methoxy-piperidin-1-ylmethyl]-piperidine-1-carboxylic acid dimethylamide]",29,>1000,–,–
"COc1cc(N)c(Cl)cc1C(=O)N[C@@H]1CCN(CCc2noc(C)n2)C[C@@H]1OC [Compound 55, (3S,4R)-4-amino-5-chloro-N-[1-(2-(5-methyl-1,2,4-oxadiazol-3-yl)ethyl)-3-methoxypiperidin-4-yl]-2-methoxybenzamide]",–,–,31,–
"CCOC(=O)N1CCC(CN2CC[C@H](NC(=O)c3cc(Cl)c(N)cc3OC)[C@H](OC)C2)CC1 (relative stereo) [Compound 1, ethyl 4-[(cis-4-(4-amino-5-chloro-2-methoxybenzamido)-3-methoxypiperidin-1-yl)methyl]piperidine-1-carboxylate]",230,–,–,>1000
"COc1cc(N)c(Cl)cc1C(=O)N[C@H]1CCN(CC2CCN(C(=O)NC(C)C)CC2)C[C@H]1OC (relative stereo) [Compound 63, 4-[cis-4-(4-amino-5-chloro-2-methoxybenzoylamino)-3-methoxy-piperidin-1-ylmethyl]-piperidine-1-carboxylic acid isopropylamide]",25,–,–,>1000

# — patent US20100105727A1, “NOVEL BENZAMIDE DERIVATIVES AND PROCESS FOR THE PREPARTION THEREOF” (DONG-A-PHARM. CO., LTD., priority 2007, published 2010)
